Results taken from patent US10207991B2, “Isoindoline compositions and methods for treating neurodegenerative disease” (priority 2014, dated 2019).
Entries after “also recorded” stand apart in the source; their conditions may differ. One block for each compound: values may come before it.

Legend:
[1] = tested on: MDA-MB-435 or MDA-MB231 or SKOV-3 cells; assay: Tumor cell viability (MTS) assay; assay type: cell-based
Description: The cytotoxicity of test compounds is determined using the CellTiter96 Aqueous One Solution Assay (Promega, Madison, Wis.). Briefly, MDA-MB-435 or MDA-MB231 or SKOV-3 cells were seeded in a 96-well plate at a density of 2000 cells/well on the day prior to treatment with sigma-2 receptor selective ligands. […] The plate is read at 490 nm in a Victor3 plate reader (PerkinElmer Life and Analytical Sciences, Shelton, Conn.). The EC^50 value, defined as the concentration of the sigma ligand required to inhibit cell viability by 50% relative to untreated cells, is determined from the dose response curve for each cell line. Siramesine is accepted as an agonist.

neurons = settings: 24 hours; cited from earlier work
[2] = tested on: caspase-3 activation in tumor cells; settings: cited from earlier work
[3] = tested on: caspase-3 activation in neurons; settings: cited from earlier work
Sigma-2 receptor = Sigma-2 receptor (Rattus norvegicus (Rat), UniProt Q5U3Y7); assay: Sigma-2 receptor competitive radioligand binding assay; settings: read-out: Sigma-2 Receptor Affinity, Ki
Sequence of Sigma-2 receptor (Q5U3Y7 whole entry): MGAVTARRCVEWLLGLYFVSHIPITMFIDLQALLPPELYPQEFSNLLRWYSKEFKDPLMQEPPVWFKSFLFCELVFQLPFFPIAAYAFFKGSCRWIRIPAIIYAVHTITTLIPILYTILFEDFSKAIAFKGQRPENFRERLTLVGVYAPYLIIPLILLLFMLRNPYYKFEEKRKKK
Description: Radioligand binding assays for Sigma-1 receptors and Sigma-2 receptors were carried out by a commercial contract research organization. For Sigma-1 binding, various concentrations of test compounds from 100 μM to 1 nM were used to displace 8 nM [^3H](+)pentazocine from endogenous receptors on Jurkat cell membranes (Ganapathy M E et al. 1991, J Pharmacol. Exp. Ther. 289:251-260). 10 μM Haloperidol was used to define non-specific binding. For Sigma-2 receptors various concentrations of test compounds from 100 μM to 1 nM were used to displace 5 nM [^3H] […] (Bowen W D, et al. 1993, Mol. Neuropharmcol 3:117-126). 10 μM Haloperidol was used to define non-specific binding. […] Radioactivity on the dried filter discs was measured using a liquid scintillation analyzer (Tri-Carb 2900TR; PerkinElmer Life and Analytical Sciences). The displacement curves were plotted and the Ki values of the test ligands for the receptor subtypes were determined using GraphPad Prism (GraphPad Software Inc., San Diego, Calif.). The percentage specific binding was determined by dividing the difference between total bound (disintegrations per minute) and nonspecific bound (disintegrations per minute) by the total bound (disintegrations per minute).
The affinity of candidate sigma-2 ligand compounds at sigma-1 and sigma-2 receptors was also determined by displacement of different known labeled sigma-2 or sigma-1 ligands. […]

Compound: COc1ccc(C)cc1NC(=O)OC1C[C@H]2CCC[C@@H](C1)N2CCCCCCN (stereo partly shown) [SV-119]
- Action [1]: Full agonist (If the EC50s of a sigma-2 ligand test compound is less than 2 fold of EC50 of siramesine, this sigma-2 ligand test compound is considered as an agonist)
- nuclear morphology / nuclear intensity compared to vehicle (neurons): cause significant abnormal nuclear morphology
- caspase-3 activation [2]: activate caspase-3
- caspase-3 activation [3]: activate caspase-3

- Ki (Sigma-2 receptor): > 10 µM
Compound: CC(C)(C)Oc1cc(CCC(C)(C)N2Cc3cccc(C(=O)O)c3C2)ccc1O [compound 75]

Compound: COc1cc2c(cc1OC)CN(CCCCNC(=O)c1cc(C)ccc1OC)CC2 [RHM-1, N-[4-(3,4-dihydro-6,7-dimethoxyisoquinolin-2(1H)-yl)butyl]-2-methoxy-5-methylbenzamide]
- nuclear morphology / nuclear intensity compared to vehicle (neurons): do not decrease nuclear intensity
- caspase-3 activation [2]: do not induce caspase-3 activity
- inhibition of caspase-3 activation [2]: inhibits the activation
- block of caspase-3 activation by agonist SV-119 [3]: not able to block activation
- caspase-3 activation [3]: do not induce caspase-3 activity

Compound: Fc1ccc(-n2cc(CCCCN3CCC4(CC3)OCc3ccccc34)c3ccccc32)cc1 [Siramesine]
- nuclear morphology / nuclear intensity compared to vehicle (neurons): cause significant abnormal nuclear morphology
- caspase-3 activation [2]: activate caspase-3; also recorded: induces caspase-3 activity
- caspase-3 activation [3]: activate caspase-3
